pIC50: −log10 of the molar value.
Tests used:
RNR (RNR1:RNR2 1:1) = target: T1, RNR (RNR1:RNR2 1:1) (Homo sapiens, UniProt P23921); experiment: RNR enzyme activity, rapid-fire mass spectrometry (RF/MS) assay; format: biochemical; settings: [RNR] 50 nM, 1:1 RNR1:RNR2; CDP 5 μM; ATP 1 mM; 37° C., 45 min; compounds screened up to 50 μM
T1 sequence (P23921 1-792): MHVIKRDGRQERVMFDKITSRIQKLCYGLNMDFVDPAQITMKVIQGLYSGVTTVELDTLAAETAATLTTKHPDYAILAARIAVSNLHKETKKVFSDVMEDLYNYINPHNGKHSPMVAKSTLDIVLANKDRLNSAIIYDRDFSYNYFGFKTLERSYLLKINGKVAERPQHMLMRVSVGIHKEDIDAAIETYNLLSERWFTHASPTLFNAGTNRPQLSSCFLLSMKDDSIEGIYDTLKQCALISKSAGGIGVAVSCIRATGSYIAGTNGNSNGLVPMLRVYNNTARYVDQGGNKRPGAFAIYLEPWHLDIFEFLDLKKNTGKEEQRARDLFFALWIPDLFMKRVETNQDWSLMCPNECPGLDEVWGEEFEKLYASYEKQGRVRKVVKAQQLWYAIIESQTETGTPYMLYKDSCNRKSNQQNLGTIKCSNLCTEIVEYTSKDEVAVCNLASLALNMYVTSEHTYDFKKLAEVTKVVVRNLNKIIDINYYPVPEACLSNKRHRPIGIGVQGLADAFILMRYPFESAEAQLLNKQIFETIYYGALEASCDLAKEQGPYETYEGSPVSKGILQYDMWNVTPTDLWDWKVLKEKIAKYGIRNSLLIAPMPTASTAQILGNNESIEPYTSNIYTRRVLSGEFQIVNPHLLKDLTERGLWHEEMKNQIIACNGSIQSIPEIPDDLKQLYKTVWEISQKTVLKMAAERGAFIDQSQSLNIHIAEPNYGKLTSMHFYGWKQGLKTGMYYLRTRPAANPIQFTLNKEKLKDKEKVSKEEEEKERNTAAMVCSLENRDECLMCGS
Description: A rapid-fire mass spectrometry (RF/MS) assay was used to assess RNR enzyme activity using a 384 well plate and a robotic platform.
The plate layout included two validated reference compounds (Triapine (3-AP) and Hydroxyurea (HU)): • A dose response in duplicate; top concentration: 5 μM (3-AP) and 250 μM (HU), semi-log dilutions. • Spike wells in triplicate randomly spotted at four concentrations: • 250 μM, 100 μM, 30 μM and 2 μM for HU • 5 μM, 2 μM, 0.6 μM and 0.04 μM for 3-AP
First, the multidrop pipes were saturated for 30 minutes with enzymatic solution. Then 30 μL of Stop solution was distributed in column 24. Next, 15 μL of enzyme was distributed in column 1 to 24. Next, a pre-incubation step of 15 minutes at room temperature occurred, followed by distribution of 15 μL of substrate solution (column 1 to 24). Next, the plate was incubated for 45 minutes at 37° C. 30 μL of Stop solution was then distributed to columns 1 to 23.
The final parameters for the enzyme reactions were: • Incubation: 37° C., 45 min • [CDP]: 5 μM; [ATP]: 1 mM; [NADPH]: No • [RNR]final: 50 nM with 1:1 (RNR1:RNR2) ratio • Final volume: 30 μL • Stop solution: 6% HCOOH in water

[1] = test system: pCHK1 (S345) in Colo320 DM cells; experiment: Alphalisa assay, detection of pCHK1 (S345) in Colo320 DM cells; format: cell-based, human; settings: Homo sapiens, COLO 320DM, compound overnight (approximately 16 hours)
Description: Colo320 DM cells (ATCC #CCL-220, derived from human colorectal adenocarcinoma, Dukes' type C) were seeded on a […], cell culture treated assay plate at a density of 50,000 cells/well in 200 μL of RPMI-1640 media supplemented with 10% Fetal Bovine Serum and incubated at 37° C. overnight. The following day, test compound dilutions were added directly to the plated cells by a Tecan digital dispenser to a final DMSO concentration of <0.5%. and incubated at 37° C. overnight (approximately 16 hours). The following day all cell culture media was removed from the cells. 75 μL of 1×AlphaLisa lysis buffer was added to each well and plates were agitated on a shaker for 30 minutes at room temperature. The lysis of cells and detection of pCHK1 (S345) were performed with reagents contained within the AlphaLisa Sure Fire assay kit (Perkin Elmer #ALSU-PCHK1-A) according to the manufacturer's instructions. 10 μL of each lysate was then transferred to a white, 384-well assay plate (Perkin Elmer #6008280). 5 μL of Acceptor mix was then added to each well of lysate in the white, 384-well assay plate and incubated in the dark at room temperature for 60 minutes. 5 μL of Donor mix was then added to each well of the white, 384-well assay plate in subdued light and incubated at room temperature for 60 minutes. Plates were read on an Alpha Technology-compatible plate reader using standard AlphaLisa settings.

Structure (SMILES) | pIC50 (RNR (RNR1:RNR2 1:1)) | pIC50 [1]
Cc1ccc(F)c([C@@H](C)[C@@H](c2n[nH]c(=O)o2)N2CCOc3c(ccc(Cl)c3[C@H](C)N(C)C)S2(=O)=O)c1C (single isomer, unassigned) [Example 53] | > 7.70 | 5.30 to 6.00
Cc1ccc(F)c([C@@H](C)[C@@H](c2n[nH]c(=O)o2)N2CCOc3c(ccc(Cl)c3[C@@H](C)N(C)C)S2(=O)=O)c1C (single isomer, unassigned) [Example 54] | > 7.70 | 5.30 to 6.00
Cc1ccc(F)c([C@@H](C)[C@@H](c2n[nH]c(=O)o2)N2CN(C3CCCOC3)c3cc(Cl)ccc3S2(=O)=O)c1C (stereo in doubt) [Example 43, 5-((1S,2R)-1-(6-chloro-1,1-dioxido-4-((S)-tetrahydro-2H-pyran-3-yl)-3,4-dihydro-2H-benzo[e][1,2,4]thiadiazin-2-yl)-2-(6-fluoro-2,3-dimethylphenyl)propyl)-1,3,4-oxadiazol-2 (3H)-one] | > 7.70 | ≥ 6.00
Cc1ccc(F)c([C@@H](C)[C@@H](c2n[nH]c(=O)o2)N2CN(C3CCCOC3)c3cc(Cl)ccc3S2(=O)=O)c1C (stereo in doubt) [Example 44, 5-((1S,2R)-1-(6-chloro-1,1-dioxido-4-((R)-tetrahydro-2H-pyran-3-yl)-3,4-dihydro-2H-benzo[e][1,2,4]thiadiazin-2-yl)-2-(6-fluoro-2,3-dimethylphenyl)propyl)-1,3,4-oxadiazol-2 (3H)-one] | > 7.70 | ≥ 6.00
Cc1ccc(F)c([C@@H](C)[C@@H](c2n[nH]c(=O)o2)N2CN(C(C)C)c3cc(Cl)ccc3S2(=O)=O)c1C [Example 4, 5-((1S,2R)-1-(6-chloro-4-isopropyl-1,1-dioxido-3,4-dihydro-2H-benzo[e][1,2,4]thiadiazin-2-yl)-2-(6-fluoro-2,3-dimethylphenyl)propyl)-1,3,4-oxadiazol-2 (3H)-one] | 6.00 to 7.00 | 5.30 to 6.00
Cc1ccc(F)c([C@@H](C)[C@@H](c2n[nH]c(=O)o2)N2CN(C)c3cc(Cl)cnc3S2(=O)=O)c1C [Example 5, 5-((1S,2R)-1-(6-chloro-4-methyl-1,1-dioxido-3,4-dihydro-2H-pyrido[3,2-e][1,2,4]thiadiazin-2-yl)-2-(6-fluoro-2,3-dimethylphenyl)propyl)-1,3,4-oxadiazol-2 (3H)-one] | 7.00 to 7.70 | 5.30 to 6.00
Cc1ccc(F)c([C@@H](C)[C@@H](c2n[nH]c(=O)o2)N2CN(C3CC3)c3cc(Cl)ccc3S2(=O)=O)c1C [Example 6, 5-((1S,2R)-1-(6-chloro-4-cyclopropyl-1,1-dioxido-3,4-dihydro-2H-benzo[e][1,2,4]thiadiazin-2-yl)-2-(6-fluoro-2,3-dimethylphenyl)propyl)-1,3,4-oxadiazol-2 (3H)-one] | 7.00 to 7.70 | ≥ 6.00
Cc1ccc(F)c([C@@H](C)[C@@H](c2n[nH]c(=O)o2)N2COc3cc(Cl)ccc3S2(=O)=O)c1C [Example 7, 5-((1S,2R)-1-(6-chloro-1,1-dioxidobenzo[e][1,4,3]oxathiazin-2 (3H)-yl)-2-(6-fluoro-2,3-dimethylphenyl)propyl)-1,3,4-oxadiazol-2 (3H)-one] | 7.00 to 7.70 | ≥ 6.00
[2H]C([2H])([2H])N1CN([C@H](c2n[nH]c(=O)o2)[C@H](C)c2c(F)ccc(C)c2C)S(=O)(=O)c2ccc(Cl)cc21 [Example 9, 5-((1S,2R)-1-(6-chloro-4-(methyl-d3)-1,1-dioxido-3,4-dihydro-2H-benzo[e][1,2,4]thiadiazin-2-yl)-2-(6-fluoro-2,3-dimethylphenyl)propyl)-1,3,4-oxadiazol-2 (3H)-one] | 7.00 to 7.70 | ≥ 6.00
CCCN1CN([C@H](c2n[nH]c(=O)o2)[C@H](C)c2c(F)ccc(C)c2C)S(=O)(=O)c2ccc(Cl)cc21 [Example 10, 5-((1S,2R)-1-(6-chloro-1,1-dioxido-4-propyl-3,4-dihydro-2H-benzo[e][1,2,4]thiadiazin-2-yl)-2-(6-fluoro-2,3-dimethylphenyl)propyl)-1,3,4-oxadiazol-2 (3H)-one] | > 7.70 | ≥ 6.00
Cc1cc2c(cc1Cl)N(C)CN([C@H](c1n[nH]c(=O)o1)[C@H](C)c1c(F)ccc(C)c1C)S2(=O)=O [Example 12, 5-((1S,2R)-1-(6-chloro-4,7-dimethyl-1,1-dioxido-3,4-dihydro-2H-benzo[e][1,2,4]thiadiazin-2-yl)-2-(6-fluoro-2,3-dimethylphenyl)propyl)-1,3,4-oxadiazol-2 (3H)-one] | 7.00 to 7.70 | 5.00 to 5.30
Cc1ccc(F)c([C@@H](C)[C@@H](c2n[nH]c(=O)o2)N2CCN(C)c3cc(Cl)ccc3S2(=O)=O)c1C [Example 13, 5-((1S,2R)-1-(7-chloro-5-methyl-1,1-dioxido-4,5-dihydrobenzo[f][1,2,5]thiadiazepin-2 (3H)-yl)-2-(6-fluoro-2,3-dimethylphenyl)propyl)-1,3,4-oxadiazol-2 (3H)-one] | 7.00 to 7.70 | 5.30 to 6.00
Cc1ccc(F)c([C@@H](C)[C@@H](c2n[nH]c(=O)o2)N2CC(=O)N(C)c3cc(Cl)ccc3S2(=O)=O)c1C [Example 14, 5-((1S,2R)-1-(7-chloro-5-methyl-1,1-dioxido-4-oxo-4,5-dihydrobenzo[f][1,2,5]thiadiazepin-2 (3H)-yl)-2-(6-fluoro-2,3-dimethylphenyl)propyl)-1,3,4-oxadiazol-2 (3H)-one] | 7.00 to 7.70 | 5.30 to 6.00
Cc1cc2c(cc1Cl)OCCN([C@H](c1n[nH]c(=O)o1)[C@H](C)c1c(F)ccc(C)c1C)S2(=O)=O [Example 15, 5-((1S,2R)-1-(7-chloro-8-methyl-1,1-dioxido-3,4-dihydro-2H-benzo[b][1,4,5]oxathiazepin-2-yl)-2-(6-fluoro-2,3-dimethylphenyl)propyl)-1,3,4-oxadiazol-2 (3H)-one] | 6.00 to 7.00 | < 4.30
Cc1ccc(F)c([C@@H](C)[C@@H](c2n[nH]c(=O)o2)N2CCOc3cc(Cl)cnc3S2(=O)=O)c1C [Example 16, 5-((1S,2R)-1-(7-chloro-1,1-dioxido-3,4-dihydro-2H-pyrido[3,2-b][1,4,5]oxathiazepin-2-yl)-2-(6-fluoro-2,3-dimethylphenyl)propyl)-1,3,4-oxadiazol-2 (3H)-one] | 7.00 to 7.70 | 5.30 to 6.00
Cc1ccc(F)c([C@@H](C)[C@@H](c2n[nH]c(=O)o2)N2CCOc3cc(Cl)ncc3S2(=O)=O)c1C [Example 17, 5-((1S, 2R)-1-(7-chloro-1,1-dioxido-3,4-dihydro-2H-pyrido[4,3-b][1,4,5]oxathiazepin-2-yl)-2-(6-fluoro-2,3-dimethylphenyl)propyl)-1,3,4-oxadiazol-2 (3H)-one] | 5.00 to 6.00 | < 4.30
COC(=O)c1cc(Cl)cc2c1S(=O)(=O)N([C@H](c1n[nH]c(=O)o1)[C@H](C)c1c(F)ccc(C)c1C)CCO2 [Example 18, methyl 7-chloro-2-((1S,2R)-2-(6-fluoro-2,3-dimethylphenyl)-1-(5-oxo-4,5-dihydro-1,3,4-oxadiazol-2-yl)propyl)-3,4-dihydro-2H-benzo[b][1,4,5]oxathiazepine-9-carboxylate 1,1-dioxide] | 6.00 to 7.00 | 4.30 to 5.00

Source: US20260085067A1, “CYCLIC SULFONAMIDE RIBONUCLEOTIDE REDUCTASE (RNR) INHIBITORS AND USES THEREOF” (Boundless Bio, Inc., priority 2022, published 2026)
